Laboratory results taken from article PMC11859928, “Design, Synthesis, and Antiproliferative Activity of Novel Indole/1,2,4-Triazole Hybrids as Tubulin Polymerization Inhibitors” (Pharmaceuticals, 2025).

Experiments:
Test in all cases: NCI one-dose assay
Type in all cases: cell-based
HL-60(TB) = settings: Homo sapiens, Leukemia, read-out: Cell growth inhibition %
Method: (§1) The National Cancer Institute (NCI), Bethesda, USA, selected the final compounds 6a–j and 7a–j for in vitro anticancer screening. An initial in vitro single-dose anticancer experiment was performed with the entire NCI 60 cell lines derived from nine tumor subpanel cancer cell lines. The results for each compound were illustrated as a mean graph showing the percentage growth of treated cells compared to untreated control cells (see Supplementary Materials).
(§2) The NCI anticancer screening process has been thoroughly detailed. The Drug Evaluation Branch of the National Cancer Institute in Bethesda, […], USA, established the procedure and conducted the anticancer assay on 60 human tumor cell lines from nine neoplastic cancers.

NCI/ADR-RES = settings: Homo sapiens, Ovarian cancer, read-out: Cell growth inhibition %
Method: as §1, §2

CCRF-CEM = settings: Homo sapiens, Leukemia, read-out: Cell growth inhibition %
Method: as §1, §2

UACC-257 = settings: Homo sapiens, UACC-257, Melanoma, read-out: Cell growth inhibition %
Method: as §1, §2

KM12 = settings: Homo sapiens, KM12, Colon cancer, read-out: Cell growth inhibition %
Method: as §1, §2

BT-549 = settings: Homo sapiens, BT-549, Breast cancer, read-out: Cell growth inhibition %
Method: as §1, §2

PC-3 = settings: Homo sapiens, PC-3, Prostate cancer, read-out: Cell growth inhibition %
Method: as §1, §2

OVCAR-4 = settings: Homo sapiens, OVCAR-4, Ovarian cancer, read-out: Cell growth inhibition %
Method: as §1, §2

K-562 = settings: Homo sapiens, K562, K-562, Leukemia, read-out: Cell growth inhibition %
Method: as §1, §2

CAKI-1 = settings: Homo sapiens, CAKI-1, Renal cancer, read-out: Cell growth inhibition %
Method: as §1, §2

NCI-H322M = settings: Homo sapiens, Non-small cell lung cancer, read-out: Cell growth inhibition %
Method: as §1, §2

OVCAR-5 = settings: Homo sapiens, OVCAR-5, Ovarian cancer, read-out: Cell growth inhibition %
Method: as §1, §2

MDA-MB-231/ATCC = settings: Homo sapiens, Breast cancer, read-out: Cell growth inhibition %
Method: as §1, §2

SN12C = settings: Homo sapiens, Renal cancer, read-out: Cell growth inhibition %
Method: as §1, §2

DU-145 = settings: Homo sapiens, DU-145, Prostate cancer, read-out: Cell growth inhibition %
Method: as §1, §2

ACHN = settings: Homo sapiens, Renal cancer, read-out: Cell growth inhibition %
Method: as §1, §2

SNB-75 = settings: Homo sapiens, SNB-75, CNS cancer, read-out: Cell growth inhibition %
Method: as §1, §2

RPMI-8226 = settings: Homo sapiens, RPMI-8226, Leukemia, read-out: Cell growth inhibition %
Method: as §1, §2

SK-MEL-5 = settings: Homo sapiens, SK-MEL-5, Melanoma, read-out: Cell growth inhibition %
Method: as §1, §2

SW-620 = settings: Homo sapiens, SW-620, Colon cancer, read-out: Cell growth inhibition %
Method: as §1, §2

MDA-MB-468 = settings: Homo sapiens, MDA-MB-468, Breast cancer, read-out: Cell growth inhibition %
Method: as §1, §2

HT29 = settings: Homo sapiens, HT-29, HT29, Colon cancer, read-out: Cell growth inhibition %
Method: as §1, §2

M14 = settings: Homo sapiens, M14, Melanoma, read-out: Cell growth inhibition %
Method: as §1, §2

TK-10 = settings: Homo sapiens, TK-10, Renal cancer, read-out: Cell growth inhibition %
Method: as §1, §2

HCT-15 = settings: Homo sapiens, HCT-15, Colon cancer, read-out: Cell growth inhibition %
Method: as §1, §2

NCI-H460 = settings: Homo sapiens, NCI-H460, Non-small cell lung cancer, read-out: Cell growth inhibition %
Method: as §1, §2

NCI-H23 = settings: Homo sapiens, NCI-H23, Non-small cell lung cancer, read-out: Cell growth inhibition %
Method: as §1, §2

SK-MEL-2 = settings: Homo sapiens, SK-MEL-2, Melanoma, read-out: Cell growth inhibition %
Method: as §1, §2

OVCAR-8 = settings: Homo sapiens, OVCAR-8, Ovarian cancer, read-out: Cell growth inhibition %
Method: as §1, §2

MALME-3M = settings: Homo sapiens, Melanoma, read-out: Cell growth inhibition %
Method: as §1, §2

SK-OV-3 = settings: Homo sapiens, SK-OV-3, Ovarian cancer, read-out: Cell growth inhibition %
Method: as §1, §2

MOLT-4 = settings: Homo sapiens, MOLT-4, Leukemia, read-out: Cell growth inhibition %
Method: as §1, §2

COLO 205 = settings: Homo sapiens, COLO 205, Colon cancer, read-out: Cell growth inhibition %
Method: as §1, §2

HCC-2998 = settings: Homo sapiens, HCC-2998, Colon cancer, read-out: Cell growth inhibition %
Method: as §1, §2

HCT-116 = settings: Homo sapiens, HCT-116, Colon cancer, read-out: Cell growth inhibition %
Method: as §1, §2

UACC-62 = settings: Homo sapiens, UACC-62, Melanoma, read-out: Cell growth inhibition %
Method: as §1, §2

SMILES	inhibition at 10 µM (HL-60(TB))	inhibition at 10 µM (NCI/ADR-RES)	inhibition at 10 µM (CCRF-CEM)	inhibition at 10 µM (UACC-257)	inhibition at 10 µM (KM12)	inhibition at 10 µM (BT-549)	inhibition at 10 µM (PC-3)	inhibition at 10 µM (OVCAR-4)	inhibition at 10 µM (K-562)	inhibition at 10 µM (CAKI-1)	inhibition at 10 µM (NCI-H322M)	inhibition at 10 µM (OVCAR-5)	inhibition at 10 µM (MDA-MB-231/ATCC)	inhibition at 10 µM (SN12C)	inhibition at 10 µM (DU-145)	inhibition at 10 µM (ACHN)	inhibition at 10 µM (SNB-75)	inhibition at 10 µM (RPMI-8226)	inhibition at 10 µM (SK-MEL-5)	inhibition at 10 µM (SW-620)	further results
C=CCn1c(SCC(=O)c2ccc(Cl)cc2)nnc1-c1c[nH]c2ccccc12 [Compound 6e, 2-((4-Allyl-5-(1H-indol-3-yl)-4H-1,2,4-triazol-3-yl)thio)-1-(4-chlorophenyl)ethenone]	10.8%	-2.31%	2.28%	2.2%	-3.89%	-0.26%	22.3%	-8%	10.1%	7.04%	-2.47%	-5.38%	8.19%	4.38%	-14.4%	7.39%	-0.53%	7.71%	3.94%	-2.66%	inhibition at 10 µM (MDA-MB-468): 8%; inhibition at 10 µM (HT29): -7.4%; inhibition at 10 µM (M14): 6.76%; inhibition at 10 µM (TK-10): -24.3%; inhibition at 10 µM (HCT-15): 6.28%; inhibition at 10 µM (NCI-H460): -3.47%; inhibition at 10 µM (NCI-H23): -7.09%; inhibition at 10 µM (SK-MEL-2): -17.1%; inhibition at 10 µM (OVCAR-8): 9.77%; inhibition at 10 µM (MALME-3M): 9.28%; inhibition at 10 µM (SK-OV-3): -20.6%; inhibition at 10 µM (MOLT-4): 10.6%; inhibition at 10 µM (COLO 205): -11.1%; inhibition at 10 µM (HCC-2998): -15.6%; inhibition at 10 µM (HCT-116): 6.8%; inhibition at 10 µM (UACC-62): 14.7%
O=C(CSc1nnc(-c2c[nH]c3ccccc23)n1-c1ccccc1)c1ccccc1 [Compound 6f, 2-((5-(1H-indol-3-yl)-4-phenyl-4H-1,2,4-triazol-3-yl)thio)-1-phenylethanone]	12.8%	85.2%	8.65%	-3.2%	30.5%	37.8%	34.2%	102%	47.2%	46.8%	18.8%	11.4%	73%	55.3%	14.3%	39.5%	-0.34%	18.7%	9.3%	23.9%	inhibition at 10 µM (MDA-MB-468): 22.8%; inhibition at 10 µM (HT29): 52.1%; inhibition at 10 µM (M14): 26.4%; inhibition at 10 µM (TK-10): 28%; inhibition at 10 µM (HCT-15): 20.6%; inhibition at 10 µM (NCI-H460): 38.2%; inhibition at 10 µM (NCI-H23): 55.1%; inhibition at 10 µM (SK-MEL-2): 8.14%; inhibition at 10 µM (OVCAR-8): 85.3%; inhibition at 10 µM (MALME-3M): 62.6%; inhibition at 10 µM (SK-OV-3): 14.4%; inhibition at 10 µM (MOLT-4): 9.43%; inhibition at 10 µM (COLO 205): 6.63%; inhibition at 10 µM (HCC-2998): 16.9%; inhibition at 10 µM (HCT-116): 62%; inhibition at 10 µM (UACC-62): 26.6%
COc1ccc(C(=O)CSc2nnc(-c3c[nH]c4ccccc34)n2-c2ccccc2)cc1 [Compound 6g, 2-((5-(1H-Indol-3-yl)-4-phenyl-4H-1,2,4-triazol-3-yl)thio)-1-(4-methoxyphenyl) Ethenone]	18.7%	100%	17.5%	40.5%	11.9%	75.3%	49.7%	99.4%	41.8%	38.5%	41.6%	22.6%	54.4%	55.6%	31.1%	77.2%	85%	27.3%	18.6%	13.7%	inhibition at 10 µM (MDA-MB-468): 40.2%; inhibition at 10 µM (HT29): 16.9%; inhibition at 10 µM (M14): 24.3%; inhibition at 10 µM (TK-10): 36.1%; inhibition at 10 µM (HCT-15): 26.7%; inhibition at 10 µM (NCI-H460): 34.5%; inhibition at 10 µM (NCI-H23): 43.5%; inhibition at 10 µM (SK-MEL-2): 28%; inhibition at 10 µM (OVCAR-8): 84.5%; inhibition at 10 µM (MALME-3M): 116%; inhibition at 10 µM (SK-OV-3): 33.7%; inhibition at 10 µM (MOLT-4): 17.9%; inhibition at 10 µM (COLO 205): 15.2%; inhibition at 10 µM (HCC-2998): 22.2%; inhibition at 10 µM (HCT-116): 47.5%; inhibition at 10 µM (UACC-62): 74.2%
Cc1ccc(C(=O)CSc2nnc(-c3c[nH]c4ccccc34)n2-c2ccccc2)cc1 [Compound 6h, 2-((5-(1H-Indol-3-yl)-4-phenyl-4H-1,2,4-triazol-3-yl)thio)-1-(p-tolyl)ethenone]	56.6%	128%	39.2%	22.7%	49%	77.6%	57%	116%	72.8%	87.6%	25.1%	87%	102%	75.1%	21.1%	79.6%	101%	41.1%	67.1%	81%	inhibition at 10 µM (MDA-MB-468): 52%; inhibition at 10 µM (HT29): 92.9%; inhibition at 10 µM (M14): 48.9%; inhibition at 10 µM (TK-10): 102%; inhibition at 10 µM (HCT-15): 56.2%; inhibition at 10 µM (NCI-H460): 70.7%; inhibition at 10 µM (NCI-H23): 82.7%; inhibition at 10 µM (SK-MEL-2): 15.3%; inhibition at 10 µM (OVCAR-8): 88.7%; inhibition at 10 µM (MALME-3M): 64.8%; inhibition at 10 µM (SK-OV-3): 76%; inhibition at 10 µM (MOLT-4): 38.3%; inhibition at 10 µM (COLO 205): 25%; inhibition at 10 µM (HCC-2998): 33.6%; inhibition at 10 µM (HCT-116): 92.3%; inhibition at 10 µM (UACC-62): 76.1%
